Values of other authors in patent US20080247957A1, “Advanced drug delivery strategy and platform for minimally-invasive treatment of liver cancer” (Drexel University, priority 2007, published 2008).

Settings: in the body

- half life: less than 5 min
SMILES: O=c1[nH]cc(F)c(=O)[nH]1 [5 fluorouracil]
